# Reference: US8772353B2, “Method for enhancing the bioavalability of ospemifene” (Hormos Medical Ltd., priority 2004, dated 2014)
# Like-named read-outs stand apart in the source and are kept apart here.
# How the values were obtained:
# [1] = Study A: bioavailability of ospemifene after high caloric, high-fat breakfast versus fasted condition; conditions: for effect of food intake on bioavailability: 60 mg ospemifene tablet, single oral dose, high caloric (860 kcal), high-fat meal versus fasted, serum
# Description: Blood samples for pharmacokinetic assessments were drawn during 72 hours at each study period. A washout period between the two treatments was at least 2 weeks. […] The meal provided approximately 150, 170 and 540 kcal from protein, carbohydrate and fat, respectively.
# [2] = 60 mg ospemifene tablet, single oral dose, low caloric (300 kcal), low-fat meal versus fasted, serum
# Description: The composition of the light breakfast (approximately 300 kcal) was as follows: two slices of toast with margarine (5 g, fat content 60%), 6 slices (30 g) of cucumber, 240 ml skimmed (non-fat) milk and 100 ml orange juice. The test meal provided approximately 50, 180 and 70 kcal from protein, carbohydrate and fat, respectively.
# [3] = cited from earlier work
# [4] = cited from earlier work; remark: listed apart in the source
# [5] = Anttila M., 1997; cited from earlier work
Compound,effect of food intake on bioavailability [1],effect of food intake on bioavailability [2],aqueous solubility [3],tolerability ([4]; in vivo),bioavailability ([4]; oral administration),"effect of food intake on ospemifene absorption (increase) ([1]; oral, food intake versus fasted)",effect of food intake on absorption [5],effect of food intake on bioavailability [5]
"OCCOc1ccc(/C(=C(/CCCl)c2ccccc2)c2ccc(O)cc2)cc1 [4-hydroxy-ospemifene, 4-hydroxyospemifene]",substantial effect,–,–,–,–,–,–,–
OCCOc1ccc(/C(=C(/CCCl)c2ccccc2)c2ccccc2)cc1 [ospemifene],enhanced,enhanced,low aqueous solubility,excellent tolerability,rather low,2-3 fold,–,–
CN(C)CCOc1ccc(/C(=C(/CCCl)c2ccccc2)c2ccccc2)cc1 [toremifene],–,–,low aqueous solubility,–,–,–,retarded the absorption,did not have any positive effect
